The structures appear in SMILES notation.

Data set [1] has as its system TNFα induced systemic inflammatory response syndrome (SIRS). Briefly: TNFα induced C57BL/6 mouse systemic inflammatory response syndrome (SIRS) model (hypothermic shock). The format is in vivo. The conditions noted are these: mTNFα 5 μg/mouse tail vein, drug by gavage 15 min before modeling. As for the experimental part: TNFα Induced C57BL/6 Mouse Systemic Inflammatory Response Syndrome (SIRS) Model
Source, stirp and strain: C57BL/6 pure mouse, female, 18-20 g, purchased from Shanghai Lingchang Biotechnology Co., Ltd., license No. SCXK (Shanghai) 2013-0018. The animals were bred in the SPF animal room of Building No. 2 of the Shanghai institute of Materia Medica, and the experimental animal use license number is SYXK (Shanghai) 2013-0049. The animals were bred for at least one week before use at 22±1° C. with a humidity of 55±5% and 12 h light and dark cycle. Both feed and water are freely ingested by the animals after disinfection. All experiments were carried out in strict accordance with the relevant regulations on experimental animals.
2. Test Reagents and Materials: • 1) Recombinant Mouse mTNFα was purchased from Shanghai JIN′AN Biological Company. • 2) Experimental materials: 1.5 mL centrifuge tubes were purchased from Axygen Company, 15 mL and 50 mL centrifuge tubes were purchased from Corning Company; commonly used surgical instruments (ophthalmic scissors, large tweezers, small tweezers, tissue scissors) and 1 mL, 2 mL, and 10 mL disposable plastic dispensers were purchased from Sinopharm Chemical Reagent Co., Ltd.; pipettes of various specifications were purchased from Eppendorf Company; tips of various specifications were purchased from Axygen and Sartoruris Company. • 3) Experimental equipments: the syringe adopts omnican insulin syringes, a disposable syringe adopts sterile insulin syringe with a product number of 9161635, and an outer diameter and length of the needle tube of 0.30*8 mm; the mouse tail vein syringe is model YLS-Q9G purchased from Jinan Yyan Technology Development Co., Ltd.; Laboratory animal rectal temperature measuring instrument was model ALC-ET06 purchased from Shanghai Alcott Biotechnology Co., Ltd.
3. Reagents and Compound Preparation Methods: • 1) Recombinant Mouse mTNFα: mTNFα lyophilized powder was dissolved in PBS to prepare a stock solution of 200 μg/mL, and stored in a refrigerator at −20° C. after sub-packaging. The stock solution was put in a refrigerator at 4° C. overnight to reach dissolution equilibrium when in use. […] The drug concentration was determined comprehensively according to the results of in vitro experiments and the pharmacokinetic properties.
4. […] Therefore, the model with tail vein injection of TNFα was selected as the classic model for an animal level screen of RIP1 inhibitor. • 2) Experimental process: • a) The experimental animals were randomly grouped according to their body weight one day in advance, and there are 8 animals in each group. • b) On the day of the experiment, mTNFα and sterile PBS were diluted according to the above method, sucked into an insulin syringe at 125 μl/piece, that is, 5 μg/mice. • c) The drug was administered 15 min before modeling by gavage at 0.2 mL/mouse. • d) 15 min after administration, the modeling was started by injection of PBS or mTNFα into the tail vein, the injection was conducted according to the above dose. • e) After modeling, the rectal temperature was measured every 1 h and the survival rate was measured.
5. Testing Indicators: • 1) Animal body temperature: The rectal temperature was measured every 1 h after modeling. […]

Data set [2] is described as follows: Study on oral pharmacokinetics in rats. In kind it is in vivo. Conditions: rat, plasma, male SD rats, 3 mg/kg by gavage, average; for AUC(0-inf): extrapolated to infinity, read-out: AUCINF_obs; for MRT inf: read-out: Average residence time MRTINF_obs; for half-life: read-out: Half life T1/2 (converted); for Cmax: read-out: Peak plasma concentration Cmax. As for the experimental part:
Study on Oral Pharmacokinetics in Rats • 1. […] The pharmacokinetic behaviors of the compounds of the present invention in rats were studied, and the pharmacokinetic properties of the compounds were evaluated. • 2. The test animals are healthy adult male SD rats, 3 in each group. • 3. […] Liquid chromatography tandem mass spectrometry (LC-MS/MS) was used to determine the plasma concentration of test compounds in rat after intragastrical administration of different compounds.

`CN1C(=O)[C@@H](NC(=O)c2n[nH]c(Cc3ccccc3)n2)COc2ccccc21` [GSK2982772, reference compound] yielded a Survival rate in data set [1] of 100%.
One may read the AUC(0-t) as exposure summed from dosing to a finite time, without extrapolation to infinity. In turn, `CN1C(=O)[C@@H](NC(=O)c2n[nH]c(Cc3ccccc3)n2)COc2ccc(C#CC3CC3)cc21` [ZB-R-55] gave a Survival rate in data set [1] of 100%. In data set [2], the AUC(0-t) turned out to be 25700 ng·h/mL, the AUC(0-inf) was 26100 ng·h/mL, the MRT inf turned out to be 7.23 h and the half-life is 3.71 h. The Cmax in data set [2] was 2900 ng/mL.
In the case of `CN1C(=O)[C@@H](NC(=O)c2n[nH]c(Cc3ccccc3)n2)COc2ccc(C#Cc3ccncc3)cc21` [ZB-R-52], in data set [2], the AUC(0-t) was 1560 ng·h/mL, the AUC(0-inf) was 1560 ng·h/mL, the MRT inf is 1.61 h and the half-life was 0.81 h. In addition, the Cmax in data set [2] came to 755 ng/mL.
Consider `Cc1c(C#Cc2cnn(C)c2)sc2c1SC[C@H](NC(=O)c1nnc(Cc3ccccc3)[nH]1)C(=O)N2C` [ZB-R-39], for which, in data set [2], the AUC(0-t) came out at 1680 ng·h/mL, the AUC(0-inf) was 1700 ng·h/mL, the MRT inf was 4.07 h and the half-life was 3.46 h. For the same compound, the Cmax in data set [2] stood at 525 ng/mL.
As for `CN1C(=O)[C@@H](NC(=O)c2n[nH]c(Cc3ccccc3)n2)COc2ccc(C#Cc3ccccn3)cc21` [ZB-R-50], the Survival rate in data set [1] stood at 100%. In addition, in data set [2], the AUC(0-t) was 3110 ng·h/mL, the AUC(0-inf) is 3120 ng·h/mL, the MRT inf amounted to 2.2 h and the half-life is 1.56 h. Besides, the Cmax in data set [2] was 1450 ng/mL.
As for `CN1C(=O)[C@@H](NC(=O)c2n[nH]c(Cc3ccccc3)n2)COc2ccc(C#Cc3cccnc3)cc21` [ZB-R-51], in data set [2], the AUC(0-t) came out at 4210 ng·h/mL, the AUC(0-inf) is 4290 ng·h/mL, the MRT inf turned out to be 2.8 h and the half-life is 1.79 h. Also, in data set [2], the Cmax came to 1360 ng/mL.
On to `CN1C(=O)[C@@H](NC(=O)c2n[nH]c(Cc3ccccc3)n2)COc2ccc(C#CC3CCOCC3)cc21` [ZB-R-54], for which, in data set [1], the Survival rate came to 100%. In data set [2], the AUC(0-t) amounted to 1240 ng·h/mL, the AUC(0-inf) is 1250 ng·h/mL, the MRT inf came to 2 h and the half-life was 1.14 h. For the same compound, the Cmax in data set [2] was 667 ng/mL.
In data set [1], `CN1C(=O)[C@@H](NC(=O)c2n[nH]c(Cc3ccccc3)n2)COc2ccc(C#Cc3cnn(C)c3)cc21` [ZB-R-53] yielded a Survival rate of 100%. Besides, in data set [2], the AUC(0-t) was determined as 4500 ng·h/mL, the AUC(0-inf) was 4650 ng·h/mL, the MRT inf was found to be 2.41 h and the half-life was 1.54 h. Moreover, in data set [2], the Cmax was 1760 ng/mL.
